Test system: Tumor Necrosis Factor alpha (TNFα)
Assay: Lipopolysaccharide (LPS)-induced serum TNFα in rats (oral dosing 2 h before LPS, serum ELISA)
Assay type: in vivo
Design: unit not given here
Settings: LPS 0.01 mg/Kg intraperitoneal, male Lewis rats
Protocol: The purpose of this study was to examine the ability of compound 1 to suppress lipopolysaccharide (LPS)-induced Tumor Necrosis Factor alpha (TNFα) levels when administered to male Lewis rats.
Compound 1 was added directly to 100% ethanol. The suspension was vortexed vigorously until all of compound 1 was completely dissolved or fully suspended. The solution was made up to volume in 0.5% methylcellulose. The final concentration of ethanol was 10%.
At time minus 2 hours, rats were administered the appropriate amount of prednisolone and/or compound 1 via oral gavage in a dose volume of 0.25 mL. Untreated control and LPS Control animals received 0.25 mL of the vehicle only.
LPS was prepared at a 100X concentration by resuspension in Phosphate Buffered Saline (PBS). The LPS solution was vortexed vigorously to ensure complete suspension of the LPS. Immediately prior to injection, the LPS was serial diluted in PBS to a 1× working solution.
At time 0, animals were injected via the intraperitoneal route with 1.0 mL of the 1×LPS working solution (final LPS dose is 0.01 mg/Kg body weight) using a 25 gauge needle. Vehicle control animals received 1 mL of PBS.
Blood was expelled into a serum separator tube containing Clot Activator (Becton Dickinson, Franklin Lakes, N.J.). Samples were allowed to sit at room temperature for 30 min prior to spinning at 2000 rpm for 10 min in a bench top centrifuge at room temperature. Serum was transferred to an Eppendorf tube and immediately assayed for TNFα or stored at −80° C. until assayed.
Serum samples were assayed using the BioSource Rat TNFα ELISA kit according to the manufacturer's instructions.
Evaluation of the results included statistical analysis of differences in serum TNFα between treatment and control groups. Group means were compared using a one-way ANOVA. If the ANOVA was significant, p≦0.05, a multiple comparison test (Tukey-Kramer) was used to determine which groups were different.

SMILES | Serum TNFα ± Standard Error (0.3 mg/kg prednisolone, oral gavage at minus 2 hours) | Serum TNFα ± Standard Error (10 mg/kg prednisolone, oral gavage at minus 2 hours) | Serum TNFα ± Standard Error (0.3 mg/kg compound 1, oral gavage at minus 2 hours) | Serum TNFα ± Standard Error (1 mg/kg compound 1, oral gavage at minus 2 hours) | Serum TNFα ± Standard Error (3 mg/kg compound 1, oral gavage at minus 2 hours)
C[C@]12C=CC(=O)C=C1CC[C@@H]1[C@@H]2[C@@H](O)C[C@@]2(C)[C@H]1CC[C@]2(O)C(=O)CO [prednisolone, reference compound] | 11375.9 ± 5238.4 | 6239.3 ± 5020.4 | – | – | –
Clc1ccc2c(c1)C(N1CCN(CCN3CCOCC3)CC1)=Nc1ccccc1O2 [compound1] | – | – | 13675.6 ± 7606.9 | 12769.1 ± 5231.2 | 12980.4 ± 6788.4

— US20060281722A1, “Compounds and uses thereof” (priority 2005, published 2006)
